Data on 26 substances can be found in patent US12662676B2, “Aptamer nucleic acid molecule, and complex and application thereof” (EAST CHINA UNIVERSITY OF SCIENCE AND TECHNOLOGY, priority 2019, dated 2026).

The first data set can be described thus: Fluorescence activation of III-3 fluorophore by Pepper aptamers and mutants. The format is biochemical. The note with it: Activation of III-3 by Pepper mutants with multiple mutations; 1 μM III-3 with 5 μM RNA. As to the method: Preparation of Pepper or Pepper mutant aptamer according to the commonly used experimental method (1). 5 μM aptamer and 1 μM fluorophore were incubated in the detection buffer (40 mM HEPES, pH 7.4, 125 mM KCl, 5 mM MgCl2, 5% DMSO). The maximal excitation and emission peaks of the aptamer-fluorophore complexes were determined using a Synergy Neo2 multifunctional microplate reader. The fluorescence intensities of the aptamer-fluorophore complexes at the maximal excitation and emission peaks were determined using a Synergy Neo2 multifunctional microplate reader. The control sample (1 μM fluorophore without aptamer) was also measured under the same conditions. Then the ratios of fluorescence intensity were calculated. For example, the fluorescence maximal excitation and emission peaks of the complex of 5 μM F30-Pepper-2 and 1 μM III-3 fluorophore are 485 nm and 530 nm, respectively. The fluorescence intensity of the complex at 485±10 nm excitation and 530 nm±10 nm emission was 36,000, the fluorescence intensity of the control sample (1 μM III-3 fluorophore only) under the same detection conditions was 10. Thus, the activation ratio of F30-Pepper-2 aptamer on III-3 fluorophore was 3,600-fold.
In order to detect the fluorescence activation of III-3 fluorophore by different Pepper mutant, the Pepper-1 sequence in F30-Pepper-1 was mutated according to Table 1. […] 1 μM III-3 was incubated with […] RNA and their fluorescence activation folds were determined according to the commonly used experimental method (5). […] In summary, many Pepper mutants containing single and multiple mutants still retain the ability to activate the fluorescence of III-3 fluorophore.
In order to detect the activation of III-3 by modified Pepper, base-modified Pepper-3 was synthesized (SEQ ID NO: 6, the underlined nucleotides in […] GGCC contain deoxyribonucleotide bases) and Pepper-4 (SEQ ID NO: 7, the underlined nucleotides in […] GGGCC contain 2′-F modification) (synthesized by Shanghai GenePharma Co., Ltd), which contain deoxyribonucleotides replacement (shaded bases in FIG. 5A) or 2′-F modification (shaded bases in FIG. 5B) in the stem-loop region of Pepper. Detection of the fluorescence activation of III-3 fluorophore by these modified Peppers was carried out according to the commonly used experimental method (5).
With “C2A/G31U/G10A/C30U: F30-Pepper-1 mutant aptamer (NACAAUCGUAGCGUGUCGNNNACUGGCGCUUN; Pepper mutant embedded in F30 scaffold, chemistry not given here, further chemistry not given here)”, the Activation folds was determined as 3105 folds.
Still for that read-out and setting: under “C2A/G31U/G10C/C30G: F30-Pepper-1 mutant aptamer (NACAAUCGUCGCGUGUCGNNNACUGGCGCGUN; Pepper mutant embedded in F30 scaffold, chemistry not given here, further chemistry not given here)” stands 3475 folds; under “C2A/G31U/G10U/C30A: F30-Pepper-1 mutant aptamer (NACAAUCGUUGCGUGUCGNNNACUGGCGCAUN; Pepper mutant embedded in F30 scaffold, chemistry not given here, further chemistry not given here)”, 3024 folds; under “C2A/G31U: F30-Pepper-1 mutant aptamer (NACAAUCGUGGCGUGUCGNNNACUGGCGCCUN; Pepper mutant embedded in F30 scaffold, chemistry not given here, further chemistry not given here)”, 3365 folds.
For the substance “C2G/G31C/G10A/C30U/U6G/C27U: F30-Pepper-1 mutant aptamer (NGCAAGCGUAGCGUGUCGNNNACUGGUGCUCN; RNA, backbone, methylation of C and the base at N not given here; Pepper aptamer mutant embedded in F30 scaffold)”, the Activation folds came out at 758 folds.
“C2G/G31C/G10A/C30U: F30-Pepper-1 mutant aptamer (NGCAAUCGUAGCGUGUCGNNNACUGGCGCUCN; Pepper mutant embedded in F30 scaffold, chemistry not given here, further chemistry not given here)”: the Activation folds worked out at 2365 folds.
The same measure, in the same setting: under “C2G/G31C/G10C/C30G/U6G/C27U: F30-Pepper-1 mutant aptamer (NGCAAGCGUCGCGUGUCGNNNACUGGUGCGCN; RNA, backbone, methylation of C and the base at N not given here; Pepper aptamer mutant embedded in F30 scaffold)” stands 736 folds; under “C2G/G31C/G10C/C30G: F30-Pepper-1 mutant aptamer (NGCAAUCGUCGCGUGUCGNNNACUGGCGCGCN; Pepper mutant embedded in F30 scaffold, chemistry not given here, further chemistry not given here)”, 2684 folds; under “C2G/G31C/G10U/C30A: F30-Pepper-1 mutant aptamer (NGCAAUCGUUGCGUGUCGNNNACUGGCGCACN; Pepper mutant embedded in F30 scaffold, chemistry not given here, further chemistry not given here)”, 3125 folds.
For “C2U/G31A/G10C/C30G: F30-Pepper-1 mutant aptamer (NUCAAUCGUCGCGUGUCGNNNACUGGCGCGAN; Pepper mutant embedded in F30 scaffold, chemistry not given here, further chemistry not given here)”, the Activation folds was determined as 2986 folds.
On to “C2U/G31A/G10U/C30A: F30-Pepper-1 mutant aptamer (NUCAAUCGUUGCGUGUCGNNNACUGGCGCAAN; Pepper mutant embedded in F30 scaffold, chemistry not given here, further chemistry not given here)”, for which the Activation folds stood at 2583 folds.
On the same count and under the same terms, with “C2U/G31A: F30-Pepper-1 mutant aptamer (NUCAAUCGUGGCGUGUCGNNNACUGGCGCCAN; Pepper mutant embedded in F30 scaffold, chemistry not given here, further chemistry not given here)” the figure was 3256 folds.

Staying with this data set, now noted: Activation of III-3 by Pepper mutants with single mutation; 1 μM III-3 with 5 μM RNA.
For “A4C: F30-Pepper-1 mutant aptamer (NCCCAUCGUGGCGUGUCGNNNACUGGCGCCGN; Pepper mutant embedded in F30 scaffold, chemistry not given here, further chemistry not given here) [Compound A4C]”, the Activation folds turned out to be 2772 folds.
Same read-out and setting: under “A5C: F30-Pepper-1 mutant aptamer (NCCACUCGUGGCGUGUCGNNNACUGGCGCCGN; Pepper mutant embedded in F30 scaffold, chemistry not given here, further chemistry not given here) [Compound A5C]” stands 2628 folds; under “C3A: F30-Pepper-1 mutant aptamer (NCAAAUCGUGGCGUGUCGNNNACUGGCGCCGN; RNA, backbone, methylation of C and the base at N not given here; Pepper aptamer mutant embedded in F30 scaffold) [Compound C3A]”, 2484 folds; under “C3U: F30-Pepper-1 mutant aptamer (NCUAAUCGUGGCGUGUCGNNNACUGGCGCCGN; RNA, backbone, methylation of C and the base at N not given here; Pepper aptamer mutant embedded in F30 scaffold) [Compound C3U]”, 2016 folds.
On the same count and under the same terms, under “C7A: F30-Pepper-1 mutant aptamer (NCCAAUAGUGGCGUGUCGNNNACUGGCGCCGN; RNA, backbone, methylation of C and the base at N not given here; Pepper aptamer mutant embedded in F30 scaffold) [Compound C7A]” stands 1044 folds; under “C7U: F30-Pepper-1 mutant aptamer (NCCAAUUGUGGCGUGUCGNNNACUGGCGCCGN; RNA, backbone, methylation of C and the base at N not given here; Pepper aptamer mutant embedded in F30 scaffold) [Compound C7U]”, 2268 folds; under “C12U: F30-Pepper-1 mutant aptamer (NCCAAUCGUGGUGUGUCGNNNACUGGCGCCGN; Pepper mutant embedded in F30 scaffold, chemistry not given here, further chemistry not given here) [Compound C12U]”, 2268 folds.
Consider “C27G: F30-Pepper-1 mutant aptamer (NCCAAUCGUGGCGUGUCGNNNACUGGGGCCGN; Pepper mutant embedded in F30 scaffold, chemistry not given here, further chemistry not given here) [Compound C27G]”, for which the Activation folds stood at 1875 folds.
Same read-out and setting: under “C27U: F30-Pepper-1 mutant aptamer (NCCAAUCGUGGCGUGUCGNNNACUGGUGCCGN; Pepper mutant embedded in F30 scaffold, chemistry not given here, further chemistry not given here) [Compound C27U]” stands 3158 folds; under “C29G: F30-Pepper-1 mutant aptamer (NCCAAUCGUGGCGUGUCGNNNACUGGCGGCGN; Pepper mutant embedded in F30 scaffold, chemistry not given here, further chemistry not given here) [Compound C29G]”, 2145 folds.
Same read-out and setting: under “C29U: F30-Pepper-1 mutant aptamer (NCCAAUCGUGGCGUGUCGNNNACUGGCGUCGN; Pepper mutant embedded in F30 scaffold, chemistry not given here, further chemistry not given here) [Compound C29U]” stands 1437 folds; under “C30A: F30-Pepper-1 mutant aptamer (NCCAAUCGUGGCGUGUCGNNNACUGGCGCAGN; RNA, backbone, methylation of C and the base at N not given here; Pepper aptamer mutant embedded in F30 scaffold) [Compound C30A]”, 1596 folds; under “C30U: F30-Pepper-1 mutant aptamer (NCCAAUCGUGGCGUGUCGNNNACUGGCGCUGN; RNA, backbone, methylation of C and the base at N not given here; Pepper aptamer mutant embedded in F30 scaffold) [Compound C30U]”, 2587 folds.
Take “G11A: F30-Pepper-1 mutant aptamer (NCCAAUCGUGACGUGUCGNNNACUGGCGCCGN; RNA, backbone, methylation of C and the base at N not given here; Pepper aptamer mutant embedded in F30 scaffold) [Compound G11A]”: the Activation folds was 1526 folds.
